In US20220175798A1, “COMPOSITIONS COMPRISING OXYGENATED CHOLESTEROL SULFATE AND AT LEAST ONE OF POLYALKYLENE GLYCOL, CARBOXYMETHYL CELLULOSE AND POLYOXYLGLYCERIDE” (Durect Corporation, priority 2016, published 2022):
“And” between values parts separate entries of the source, which are not always exact repeats. Equal entries are not always repeated.

Experiment: Particle size analysis by Malvern Mastersizer 2000 (laser diffraction)
Format: physicochemical
Method: Two lots of 25HC3S sodium salt (Lot #A and Lot #B) were first passed through either 20 mesh or 35 mesh stainless steel sieves for particle size analysis. The particle sizes were further reduced by jet milling and analyzed again. All particle size analyses were determined using a Malvern Mastersizer 2000.
Fluid Energy Model 00 Jet-O-Mizer was used for all jet-milling. Malvern Mastersizer 2000 equipped with a Hydro 2000S dispersion cell was used for particle size analysis.
Approximately 60 mg of API was weighed into a 4 mL screw cap vial and 1 mL water, USP was added to the vial. […] Duplicate samples from each single sample preparation were analyzed.
Particle refractive index was assumed to be 1.53 (not measured by refractometer) and particle absorption index was 0.01. Dispersant (water, USP, presaturated with 25HC3 S) refractive index was 1.33. […] Throughout the measurement, the pump rate was 3000 rpm without sonication. The measurement integration time was 20,000 ms; the numbers of measurements for each sample were 5 with a 20 seconds delay in between two measurements. Analysis model: General purpose

[1] = 20 mesh sieve then Jet milling 1st pass (1st milling sample, feed rate not controlled), sodium salt
[2] = 20 mesh sieve then Jet milling 2nd pass, sodium salt
[3] = 20 mesh sieve then Jet milling 3rd pass, sodium salt
[4] = Press through 20 mesh sieve with a stainless steel spatula, sodium salt
[5] = Press through 35 mesh sieve with a stainless steel spatula
[6] = 20 mesh sieve then Jet milling 1st pass (2nd milling sample, feed rate 1 g/min)

Row | Compound | d (0.1) [1] | d (0.5) [1] | d (0.9) [1] | d (0.1) [2] | d (0.5) [2] | d (0.9) [2] | d (0.1) [3] | d (0.5) [3] | d (0.9) [3] | d (0.1) [4] | d (0.5) [4] | d (0.9) [4] | other results
1 | C[C@H](CCCC(C)(C)O)[C@H]1CC[C@H]2[C@@H]3CC=C4C[C@@H](OS(=O)(=O)[O-])CC[C@]4(C)[C@H]3CC[C@]12C.[Na+] [Lot# A, 25HC3S sodium salt] | 0.705 μm | 2.091 μm | 5.180 μm | 0.384 μm and 0.496 μm | 1.214 μm and 1.320 μm | 4.026 μm and 4.035 μm | 0.137 μm and 0.120 μm | 0.664 μm and 0.580 μm | 2.896 μm and 2.755 μm | 2.268 μm and 2.474 μm | 6.324 μm and 6.905 μm | 18.712 μm and 20.290 μm | d (0.9) (20 mesh sieve then Jet milling 1st pass (1st milling sample, feed rate not controlled), listed as Lot #A, sodium salt): 5.180 μm; d (0.9) (20 mesh sieve then Jet milling 3rd pass, listed as Lot #A, sodium salt): 2.755 μm; d (0.1) [5]: 2.536 μm; d (0.5) [5]: 7.147 μm; d (0.9) [5]: 22.195 μm
2 | C[C@H](CCCC(C)(C)O)[C@H]1CC[C@H]2[C@@H]3CC=C4C[C@@H](OS(=O)(=O)[O-])CC[C@]4(C)[C@H]3CC[C@]12C.[Na+] [Lot# B, 25HC3S sodium salt] | 2.148 μm and 1.822 μm | 6.858 μm and 5.126 μm | 29.028 μm and 22.070 μm | 1.431 μm and 1.109 μm | 4.192 μm and 3.920 μm | 15.878 μm and 13.196^4 μm | 0.976 μm and 0.651 μm | 4.251 μm and 2.329 μm | 16.17 μm | 4.132 μm and 4.947 μm | 15.439 μm and 21.437 μm | 43.740 μm and 68.250 μm | d (0.9) (20 mesh sieve then Jet milling 1st pass (1st milling sample, feed rate not controlled), listed as Lot #B, sodium salt): 22.07 μm and 16.17 μm; d (0.1) [6]: 1.253 μm; d (0.5) [6]: 3.172 μm; d (0.9) (20 mesh sieve then Jet milling 1st pass (2nd milling sample, feed rate 1 g/min), listed as Lot #B, sodium salt): 9.09 μm; d (0.9) (20 mesh sieve then Jet milling 1st pass (2nd milling sample, feed rate 1 g/min), sodium salt): 9.090 μm
